{"source": "paper PMC7503713", "about": "“GANT61 Reduces Hedgehog Molecule (GLI1) Expression and Promotes Apoptosis in Metastatic Oral Squamous Cell Carcinoma Cells” (International Journal of Molecular Sciences, 2020)", "format_in_all_cases": "cell-based, human", "key": {"SCC4": {"system": "SCC4", "assay": "alamarBlue cytotoxicity assay, SCC4", "settings": "72 h of incubation", "protocol": "(§1) To assess the cytotoxicity of the GLI inhibitor GANT61 (Sigma-Aldrich, St. Louis, MO, USA) in tumor and non-tumor cell lines, an alamarBlue assay (Sigma-Aldrich Chemical Co, St. Louis, MO, USA) was performed after 72 h of exposure to the inhibitor, as described by Ahmed et al., 1994 [46]. Cells were distributed on 96-well plates at a density of 7 × 10^4 cells/mL for adhered cells, and 3 × 10^5 cells/mL for cells in suspension. All tested compounds were dissolved in DMSO, added to wells containing 100 µL of cells in complete medium, and then incubated for 72 h. Eight concentrations of GANT61 (0.19 to 50 µg/mL), Doxorubicin (Laboratory IMA S.A.I.C., Buenos Aires, Argentina), and 5-Fluorouracil (5-FU, Sigma-Aldrich, St. Louis, MO, USA), both used as positive controls at concentrations ranging from 0.03 to 5 µg/mL, were added to respective wells. […] Absorbance was measured at 570 nm (reduced) and 595 nm (oxidized) wavelengths, using a Spectramax 190 plate reader (Molecular Devices; Sunnyvale, CA, USA).\n(§2) Statistical analyses were performed, using GraphPad Prism v. […] Data were analyzed according to distribution along the normal Gaussian curve. […] Differences between groups resulting from in vitro assays were evaluated by ANOVA (analysis of variance) testing, followed by the Student–Newman–Keuls test. […]"}, "HL60": {"system": "HL60", "assay": "alamarBlue cytotoxicity assay, HL60", "settings": "72 h of incubation", "protocol": "as §1, §2"}, "APC03": {"system": "APC03", "assay": "alamarBlue cytotoxicity assay, APC03", "settings": "72 h of incubation", "protocol": "as §1, §2"}, "HT-29": {"system": "HT-29", "assay": "alamarBlue cytotoxicity assay, HT-29", "settings": "HT-29, alamarBlue, 72 h of incubation", "protocol": "as §1, §2"}, "HaCat": {"system": "HaCat", "assay": "alamarBlue cytotoxicity assay, HaCat", "settings": "72 h of incubation", "protocol": "as §1, §2"}, "GLI1 mRNA": {"system": "GLI1 mRNA", "assay": "qPCR of HH pathway gene expression in HSC3 cells, GLI1", "settings": "12 h", "protocol": "(§3) For total RNA isolation, HSC3 cells were plated on 6-well plates, at a density of 0.7 × 10^5 cells/mL (5 mL/well volume), and incubated overnight, followed by treatment with the GLI inhibitor for 12 h at both concentrations (18 and 36 µM).\n(§4) All experiments were carried out under DNAse/RNAse-free conditions. Silica microcolumns were used for RNA extraction, using an RNeasy Plus Mini Kit (QIAGEN, Hilden, Germany). Extracted RNA was analyzed for quantity and purity, using a NanoDrop®® 1000 spectrophotometer (Thermo Fisher Scientific, Waltham, MA, USA).\n(§5) Reverse transcription was performed by using Superscript VILO™ transcriptase enzyme (Invitrogen, Carlsbad, CA, USA). The cDNA samples were stored at −20 °C, until the time of use.\n(§6) HH pathway component expression was evaluated in cells treated or not with GANT61 by qPCR, using TaqMan Gene Expression Assays^TM inventoried for the PTCH1 (Hs00181117_m1), GLI1 (Hs01110766_m1), GLI2 (Hs01119974_m1), and GLI3 (Hs00609233_m1) genes, as well as for B2 M (Hs99999907_m1). […]\n(§7) Following amplification and dissociation runs, quantification cycle (Cq) values were obtained by using the ViiA7^TM System Operational Program (AppliedByosistems, Foster City, CA, USA). For relative quantification, the comparative method (2−∆∆Cq) described by Livak and Schmittgen, 2001 was used. […]"}, "GLI3 mRNA": {"system": "GLI3 mRNA", "assay": "qPCR of HH pathway gene expression in HSC3 cells, GLI3", "settings": "HSC3, 18 and 36 µM, 12 h, not significant", "protocol": "as §3, §4, §5, §6, §7"}, "SHH protein": {"system": "SHH protein", "assay": "Western blot of HH pathway proteins in HSC3 cells, SHH", "settings": "HSC3, 18 and 36 µM, 24 h", "protocol": "After culturing, HSC3 cells were washed with PBS and denatured by using cell lysis buffer containing 50 mM Tris-HCl (pH 7.4), 1% Triton X-100, 150 mM NaCl, 0.5 mM EGTA, 0.5 EDTA mM, and an anti-protease cocktail (Complete Pro-inhibitor Cocktail Tablets, Roche, Basel, Switzerland). Protein extracts (50 μg) were separated by SDS-PAGE and transferred to Hybond-C Extra (GE Healthcare, Chicago, IL, USA) nitrocellulose membranes. The following antibodies were used in the Western blot assay: mouse […] against Sonic Hedgehog (1:500, Clone 5 H4, Cat. number NBP2-22126, Novus Biologicals, Centennial, CO, USA), rabbit polyclonal against Gli1 (1:500, Novus Biologicals, Cat. number NB600-600), rabbit polyclonal against Patched 1 (1:500, Novus Biologicals, Cat.number NB200-118), and rabbit polyclonal against Smoothened (1:1000, Cat. number AB72130, Abcam, Cambridge, MA, USA). The secondary antibodies were anti-mouse IgG (1:10,000, Santa Cruz Biotechnology, Santa Cruz, CA, USA) and anti-rabbit IgG (1:10,000, GE Healthcare, Chicago, IL, USA). Signal detection was performed by using an ECL + Chemiluminescence Detection System (PerkinElmer, Villebon sur-Yvette, France). The antibody actin (1:10000, Cat. Number15 G5 A11/E2, Invitrogen, Carlsbad, CA, USA) was selected as an endogenous control for analysis of HH pathway component expression in HSC3 cells. […]"}}}
{"smiles": "CN(C)c1ccccc1CN1CCCN(Cc2ccccc2N(C)C)C1c1ccncc1", "note": "[GANT61]", "values": [{"measurement": "IC50", "setting": "SCC4", "result": 111, "unit": "µM"}, {"measurement": "IC50", "setting": "HL60", "result": "> 116", "unit": "µM"}, {"measurement": "IC50", "setting": "APC03", "result": "> 116", "unit": "µM"}, {"measurement": "IC50", "setting": "HT-29", "result": "> 116", "unit": "µM"}, {"measurement": "IC50", "setting": "HaCat", "result": 35.1, "unit": "µM"}, {"measurement": "mRNA expression of GLI1", "setting": "GLI1 mRNA; HSC3, 18 µM, not significant", "result": "Reductions in mRNA expression"}, {"measurement": "mRNA levels of GLI1", "setting": "GLI1 mRNA; HSC3, 36 µM, vs negative (DMSO 0.2%) and positive (5-FU) controls", "result": "statistically significant reduction"}, {"measurement": "mRNA expression of GLI3", "setting": "GLI3 mRNA", "result": "Reductions in mRNA expression"}, {"measurement": "SHH protein expression", "setting": "SHH protein", "result": "reduced levels"}]}
